{"source": "patent US5939578A", "about": "“Vasomolol: an ultra short-acting and vasodilatory vanilloid type β - adrenoceptor antagonist” (Lin; Tong-Ho, priority 1996, dated 1999)", "key": {"[1]": {"system": "β-adrenoceptor, ventricular membranes", "assay": "[3H]-DHA saturation binding to ventricular membranes (Scatchard analysis)", "parameters": "species or system pig", "description": "(§1) Pig's heart were obtained from a local slaughterhouse immediately after the animals had been killed and transported to our laboratory in ice-cold buffer (250 mM sucrose/50 mM Tris [hydroxymethyl] aminomethane HCl/1 mM magnesium chloride, pH 7.4). Various heart tissues were removed and prepared as detailed as described in Cardiovasc. Res. 25, 764, 1991 (by Bjornerheim, R. et al.). In the test for receptor binding, the ventricles were placed in ice-cold buffer and all subsequent procedures were carried out at 4° C. The tissue was homogenised in 20 volumes of TE buffer (10 mmole.litre^-1 Tris-HCl, 1 mmole.litre^-1 EDTA, 0.1 mmole.litre^-1 ascorbic acid, pH 7.4) with three 12-s pulses using a Polytron homogenizer (Kinematica, Model PT 3000, Switzerland). The homogenate was filtered with pressure through muslin and the filtrate centrifuged for 10 min at 1000 g to remove connective tissue, unbroken cells and cell debris. The supernatant was centrifuged again at 10,000 g for 12 min. This second supernatant was then centrifuged for 15 min at 30,000 g and the final pellet was suspended in a assay buffer (75 mM Tris HCl/25 mM MgCl2, pH 7.4).\n(§2) Protein was determined by the method in Anal. Biochem. 72, 248, 1976 (by Bradford, M. M. et al.). This membrane preparation has been described in Biochem. Biophys. Acta. 541, 334, 1978 (by Ciaraldi, T. et al.). The binding assay of [^3 H]-DHA was carried out as described in Biochem. Biophys. Res. Commun. 60, 703, 1974 ( by Lefkowitz, R. J. et al.) with slight modifications. [^3 ]-DHA and ventricular membranes (200-300 μg) were incubated for 60 min at 25° C. with and without the addition of 1 μM alprenolol, in 75 mM Tris-HCI buffer comprising MgCl2 25 mM, to make a final volume of 250 μl. In competitive binding experiments, the competing agent was added directly to the incubation mixture. The incubation was terminated by addition of 1 ml of ice-cold assay buffer followed by immediate filtration through Whatman GF/C glass fiber filters supported on a 12-port filter manifold (Millipore). The filters were immediately washed three times with 5 ml of ice-cold assay buffer and dried in an oven at 60° C. for 2 hr prior to adding 5 ml of Triton-toluene based scintillation fluid.\n[^3 H]-DHA trapped in the filters was counted in a Wallac LKB 1211 rackbeta liquid scintillation counter with an efficiency of 41%. In each experiment, non-specifically bound [^3 H]-DHA was determined by incubating membrane protein and [^3 H]-DHA with 1 μM alprenolol. Specific binding was thus obtained by deducing this value from the total binding of [^3 H]-DHA for each sample.\n[^3 H]dihydroalprenolol([^3 H]DHA) binding curve with pig ventricular membranes. […]"}, "[2]": {"assay": "Blood pressure and heart rate responses to intravenous injection in anesthetized rats", "assay_type": "in vivo, pentobarbital-anesthetized normotensive Wistar rats", "description": "Measurement of blood pressure and heart rate\nThe method reported in Gen.\n(§3) vasomolol (0.5, 1.0, 3.0 mg/kg)"}, "[3]": {"system": "phenylephrine-induced pressor response", "assay": "Inhibition of phenylephrine-induced pressor response during intravenous infusion", "assay_type": "in vivo, reserpinized rats", "conditions": "infusion 300 μg/kg/min; phenylephrine 10 μg/kg i.v.; data not shown", "description": "The method reported in Gen. Pharmacol. 24, 1425, 1993 (by inventor group),\nphenylephrine (10 μg/klg, i.v.)"}, "β-adrenergic receptor": {"system": "β-adrenergic receptor", "assay": "β-blockade and duration of action: inhibition of (-)isoproterenol-induced tachycardia during and after infusion", "assay_type": "in vivo, pentobarbital-anesthetized rats", "description": "Vasomolol (100 μg/kg/min) was infused consecutively into a femoral vein in pentobarbital-anesthetized rats. Each perfusion was maintained for 60 min. Before and during the infusion of vasomolol and esmolol, at 10-min intervals, bolus i.v. injections of (-) isoproterenol (0.5. μg/kg) were administered to assess the level of β-blockade. (-) lsoproterenol injections were also continued for 60 min. after termination of the highest dose of vasomolol and esmolol to assess the duration of β-blockade reported in J. Pharm. Exp. Ther. 237, 912, 1986 (by Quon, C. Y. et al.). The percentage of inhibition of the (-)isoproterenol-induced tachycardia parameter of β-blockade--was calculated during and after infusions of vasomolol.\nisoproterenol (0.5 μg/kg)\nas §3"}, "[4]": {"target": "T1, β-adrenoceptor, ventricular membranes (Sus scrofa, UniProt Q28998)", "T1 construct": "tissue local slaughterhouse; host or cells: pig heart ventricular membranes", "T1 sequence (Q28998 whole entry)": "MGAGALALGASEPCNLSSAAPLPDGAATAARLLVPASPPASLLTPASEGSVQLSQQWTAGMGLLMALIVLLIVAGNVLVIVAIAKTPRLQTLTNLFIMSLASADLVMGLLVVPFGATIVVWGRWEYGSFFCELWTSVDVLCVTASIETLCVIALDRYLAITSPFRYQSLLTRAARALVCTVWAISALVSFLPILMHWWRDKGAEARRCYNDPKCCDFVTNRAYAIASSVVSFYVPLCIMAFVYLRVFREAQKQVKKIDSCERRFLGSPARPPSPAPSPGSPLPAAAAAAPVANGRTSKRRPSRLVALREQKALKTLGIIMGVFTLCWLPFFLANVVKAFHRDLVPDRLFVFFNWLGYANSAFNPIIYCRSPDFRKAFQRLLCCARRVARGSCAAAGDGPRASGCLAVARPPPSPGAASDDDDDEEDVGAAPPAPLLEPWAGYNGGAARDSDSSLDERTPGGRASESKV", "assay": "Competition for [3H]-DHA binding to ventricular membranes", "parameters": "species or system pig", "description": "as §1, with “Res. 25, 764, 1991 (by Bjornerheim, R. et al.).” left out, “debris.” for “debris. The supernatant was centrifuged again at 10,000 g for 12 min. This second supernatant was then centrifuged for 15 min at 30,000 g and the final pellet was suspended in a assay buffer (75 mM Tris HCl/25 mM MgCl2, pH 7.4).”\nas §2, with “This” for “Protein was determined by the method in Anal. Biochem. 72, 248, 1976 (by Bradford, M. M. et al.). This”, “541, 334, 1978 (by Ciaraldi, T. et al.).” left out, “60, 703, 1974 ( by Lefkowitz, R. J. et al.) with slight modifications.” left out\nIn each experiment, non-specifically bound [^3 H]-DHA was determined by incubating membrane protein and [^3 H]-DHA with 1 μM alprenolol. Specific binding was thus obtained by deducing this value from the total binding of [^3 H]-DHA for each sample.\nAll incubations were performed as described in the method section. Data shown are the means of three independent duplicate determinations."}, "blood and liver esterase": {"system": "blood and liver esterase", "conditions": "background, Drugs 33, 392, 1987; cited from earlier work"}, "[5]": {"system": "right atria and left atrial strips", "assay": "Intrinsic sympathomimetic activity in isolated right atria and left atrial strips", "parameters": "species or system reserpinized guinea-pigs", "conditions": "in words", "description": "Animals were pretreated with reserpine (10 mg/kg, i.p.) 24 hr prior to the experiment described in Naunyn-Schmiedeberg's Arch. […] All preparations including isolated right atria and left atria strips were studied.\nAll measurements are expressed as mean percentages of the control frequency or force in the same preparation."}, "[6]": {"assay": "Blood pressure and heart rate responses to intravenous injection in anesthetized rats", "assay_type": "in vivo, pentobarbital-anesthetized normotensive Wistar rats", "conditions": "0.1 mg/kg i.v.; mean ± SEM (n = 8)"}, "[7]": {"conditions": "0.5 mg/kg i.v., mean ± SEM (n = 8)"}, "[8]": {"conditions": "1.0 mg/kg i.v., mean ± SEM (n = 8)"}, "[9]": {"conditions": "3.0 mg/kg i.v., mean ± SEM (n = 8)"}}}
{"compound": "CCCc1ccccc1OCC(O)CNC(C)C", "note": "(centres unmarked) [[^3 H]-DHA, [^3 H]dihydroalprenolol]", "values": [{"measurement": "maximum binding capacity (Bmax)", "setting": "[1]; 25° C., mean±S.E.M., Scatchard", "result": "120.3±6.0", "unit": "fmol/mg protein"}, {"measurement": "Kd", "setting": "[1]; 25° C., mean±S.E.M., Scatchard, read-out: equilibrium dissociation constant (Kd)", "result": "8.1 ± 0.9", "unit": "nM"}, {"measurement": "duration of maintained binding equilibrium", "setting": "[1]; data not shown", "result": "up to 90 min"}, {"measurement": "time to reach binding equilibrium", "setting": "[1]; data not shown", "result": "approximately 20 min"}]}
{"compound": "COC(=O)CCc1ccc(OCC(O)CNC(C)C)cc1", "note": "(centres unmarked) [Esmolol]", "values": [{"measurement": "BP change", "setting": "[2]; [7]", "result": "-4.0 ± 0.8", "unit": "mm Hg"}, {"measurement": "HR change", "setting": "[2]; [7]", "result": "-25.7 ± 2.4", "unit": "bpm"}, {"measurement": "bradycardia duration", "setting": "[2]; [7]", "result": "3.7 ± 0.6", "unit": "min"}, {"measurement": "BP change", "setting": "[2]; [8]", "result": "-6.3 ± 1.3", "unit": "mm Hg"}, {"measurement": "HR change", "setting": "[2]; [8]", "result": "-37.5 ± 3.6", "unit": "bpm"}, {"measurement": "bradycardia duration", "setting": "[2]; [8]", "result": "6.0 ± 1.3", "unit": "min"}, {"measurement": "BP change", "setting": "[2]; [9]", "result": "-8.7 ± 0.9", "unit": "mm Hg"}, {"measurement": "HR change", "setting": "[2]; [9]", "result": "-58.2 ± 4.7", "unit": "bpm"}, {"measurement": "bradycardia duration", "setting": "[2]; [9]", "result": "7.5 ± 1.1", "unit": "min"}, {"measurement": "bradycardia duration", "setting": "[2]; i.v. injection", "result": "less than 10 min"}, {"measurement": "inhibition of phenylephrine-induced pressor response", "setting": "[3]", "result": "could not significantly inhibit"}, {"measurement": "onset of β-blockade to steady-state level", "setting": "β-adrenergic receptor; after initiating each infusion rate, isoproterenol 0.5 μg/kg", "result": "≤ 10", "unit": "min"}, {"measurement": "time required for 50% recovery", "setting": "β-adrenergic receptor; after termination of infusion, mean±S.E.M.", "result": "9.5 ± 1.0", "unit": "min"}, {"measurement": "disappearance of β-blockade after termination of infusion", "setting": "β-adrenergic receptor; in words", "result": "disappeared rapidly after the termination of infusion"}, {"measurement": "order of potency inhibiting [3H]-DHA binding", "setting": "[4]; in words", "result": "(-) propranolol>>vasomolol=esmolol"}, {"measurement": "IC50", "setting": "[4]; mean±S.E.M.", "result": "5 ± 1.3", "unit": "µM"}, {"measurement": "metabolism by blood and liver esterase", "setting": "blood and liver esterase", "result": "rapidly metabolized by blood and liver esterase"}]}
{"compound": "CC(C)NCC(O)c1ccc(O)c(O)c1", "note": "(centres unmarked) [isoproterenol, reference compound]", "values": [{"measurement": "intrinsic sympathomimetic activity: effect on heart rate and contractility", "setting": "[5]; cumulative concentrations", "result": "produced concentration-dependent increases in heart rate and contractility"}]}
{"compound": "CC(C)NCC(O)COc1cccc2ccccc12", "note": "(centres unmarked) [Propranolol]", "values": [{"measurement": "BP change", "setting": "[2]; 0.1 mg/kg i.v., mean ± SEM (n = 8)", "result": "3.9 ± 1.0", "unit": "mm Hg"}, {"measurement": "BP change", "setting": "[2]; [7]", "result": "7.0 ± 1.6", "unit": "mm Hg"}, {"measurement": "HR change", "setting": "[2]; [7]", "result": "-50.6 ± 8.1", "unit": "bpm"}, {"measurement": "BP change", "setting": "[2]; [8]", "result": "9.5 ± 1.1", "unit": "mm Hg"}, {"measurement": "HR change", "setting": "[2]; [8]", "result": "-65.0 ± 8.9", "unit": "bpm"}, {"measurement": "negative inotropic and chronotropic effects", "setting": "[5]", "result": "produced negative inotropic and chronotropic effects"}, {"measurement": "HR change", "setting": "[6]", "result": "-30.7 ± 3.8", "unit": "bpm"}]}
